Patent publication US20190174748A1, “COMPOSITION FOR DELIVERY OF ACTIVE AGENTS TO AN ANIMAL” (priority 2015, published 2019)

How the values were obtained:
rats = settings: 250-500 g rats, baits at 4% Warfarin activity
Text: Experimental Methods: 250-500 g rats are used. Rats are fed ad libitum. Each experimental group is housed in a separate cage.
The feed intake and kill effect on the rats are monitored.

BALB/C mice [1] = settings: baits at 4% Warfarin activity
Text: Experimental Methods: Ten-twelve week old female BALB/C mice are used. Mice are fed ad libitum. Each experimental group is housed in a separate cage.
The feed intake and kill effect on the mice are monitored.

Rodents = settings: rodents ingesting baits; cited from earlier work
BALB/C mice [2] = assay: Oral administration of OVA composition to mice: OVA specific IgG, IgA (ELISA) and ASC; assay type: in vivo; settings: mice inoculated at 0 and 3 weeks, sampled at week 4
Procedure: Ovalbumin is orally administered to mice to test the efficacy of the inventive compositions in inducing an immune response.
Ovalbumin composition: Ovalbumin (1 mg/g of ovalbumin, Sigma, St. Louis, Mo.,) is incorporated into the inventive composition as described in Example 5. Three groups of 4 mice each are inoculated as follows: 1) ovalbumin (OVA) in the composition, administered orally, 2) OVA solution, administered subcutaneously (SC), 3) antigen free composition administered orally. Mice are inoculated at 0 and 3 weeks. Each dose administers a total 100 mg of dry composition mixed with corn oil at a ratio of 1:2 w/w of dry composition/oil, coated onto feed pellets. At week 4 each mouse is euthanized and serum and spleen cells are harvested.
Immunological assays: Serum is assayed for IgG and IgA by ELISA. ELISA is performed using OVA absorbed to polystyrene plates. Samples are placed in wells in triplicate at a 1:25 dilution for serum. Goat anti-mouse antibody conjugated with horse radish peroxidase is used, followed by an orthophenylenediamine substrate (Sigma, St. Louis, Mo., U.S.A.). Optical density of each well is determined by placing the plate in a microtiter plate spectrophotometer and reading the plate at 490 nm. Spleen cells are tested for antibody secreting cells (ASC) specific for OVA, using techniques described previously.

[3] = Degradation of unprotected OVA in simulated gastric fluid with 0.08% pepsin, pH 2; assay type: in vitro ADME; settings: pH 2, 37° C.
Procedure: Western Blot: the compositions were lysed with RIPA buffer as described above, and a calculated amount equivalent to 12 μg of protein per sample was loaded on a 10% SDS-polyacrylamide gradient gel (SDS-PAGE, Bio-Rad, Hercules, Calif.). Proteins were transferred onto a PVDF membrane (Bio-Rad) and blocked for 1 h with 5% non-fat milk in PBS containing 0.5% Tween-20 (PBS-T). Blots were incubated with an appropriate primary antibody at 1:5000 dilutions for 1 h at room temperature. After washing with PBS-T (3×10 mL, 5 min. each), the membranes were incubated with an appropriate HRP-conjugated secondary antibody (EMD Millipore Corporation, Billerica, Mass., USA) at 1:5000 dilution for 1 h. After washing with PBS-T (3×10 mL, 5 min. each), chemiluminescent films were developed with an ECL substrate (Amsheram Biosciences).
To evaluate the loss of activity of a protein antigen following a typical gastric exposure, non-encapsulated OVA (10 mg) was incubated in 10 ml simulated gastric fluid containing 0.08% pepsin at pH-2 for 2 h at 37° C. on a shaker. Medium was withdrawn at 15 min, 30 min, 60 min and 120 min incubation times, and the amount of residual OVA was analyzed using Western Blot analysis as described above.

Molecule: CC(=O)CC(c1ccccc1)c1c(O)c2ccccc2oc1=O (stereo not shown) [Warfarin]
- kill effect after 8 h from feeding (rats): all group 2 rats remain alive
- kill effect after 8 h from feeding (BALB/C mice [1]): all group 2 mice remain alive
- time to become unconscious (Rodents): 1 to 2 h
- time to obvious symptoms of poisoning (Rodents): 15 to 30 min
- time to recovery after sub lethal amount (Rodents): ≤ 8 h

Molecule: ovalbumin [non-encapsulated OVA, ovalbumin, model vaccine / protein antigen, unprotected]
- OVA specific serum IgA, IgG and ASC secreting cells (BALB/C mice [2]): equally increased

B1: ovalbumin (protein, UniProt P01012 2-386, looked up)
Ovalbumin: GSIGAASMEFCFDVFKELKVHHANENIFYCPIAIMSALAMVYLGAKDSTRTQINKVVRFDKLPGFGDSIEAQCGTSVNVHSSLRDILNQITKPNDVYSFSLASRLYAEERYPILPEYLQCVKELYRGGLEPINFQTAADQARELINSWVESQTNGIIRNVLQPSSVDSQTAMVLVNAIVFKGLWEKAFKDEDTQAMPFRVTEQESKPVQMMYQIGLFRVASMASEKMKILELPFASGTMSMLVLLPDEVSGLEQLESIINFEKLTEWTSSNVMEERKIKVYLPRMKMEEKYNLTSVLMAMGITDVFSSSANLSGISSAESLKISQAVHAAHAEINEAGREVVGSAEAGVDAASVSEEFRADHPFLFCIKHIATNAVLFFGRCVSP
notes: ovalbumin, model vaccine / protein antigen, unprotected
- Remaining activity (%) ([3]; 15 min in simulated gastric fluid, relative to pre-exposure activity): 61%
- Remaining activity (%) ([3]; 30 min in simulated gastric fluid): 55%
- Remaining activity (%) ([3]; 60 min in simulated gastric fluid): 38%
- Remaining activity (%) ([3]; 120 min in simulated gastric fluid): 2%
